What was measured:
[1] = Relaxivity (r1) by variable flip angle technique at 9.4 T; format: physicochemical
Procedure: (§1) While the liposomal contrast agent has slow clearance, Multihance® clears rapidly, and timing the image acquisition is critical. We therefore opted to use the DCE-MRI technique to collect a series of images, from which the optimal time point could be selected. DCE-MRI experiments were performed on a horizontal bore 9.4 T Bruker Avance III, 20 cm bore Biospec Spectrometer (Karlsruhe, Germany) with a micro-imaging probe capable of generating gradients of (1000 mT/m). Prior to the in vivo study, the relaxivity of both agents was measured using the variable flip angle technique described in Appendix A. Similarly, the baseline relaxation rates, T1(O), for placenta and fetus were measured using the same pulse sequence as described in Appendix A.

[2] = Gadolinium assay by ICP-MS of placentae and fetuses; format: in vivo, mouse
Procedure: (§2) 25 female Balb/c mice (7-9 weeks old; average weight 26 grams before pregnancy) were used in this study. Animals were mated with same strain males. The day when a vaginal copulation plug was detected was designated as day 0.5. Pregnant mice were imaged at day 16.5±1. Mice were sacrificed (under the institutional euthanasia protocol) immediately after MRI data collection (except for two mice that received the liposomal Gd agent, and were maintained alive for 72 hours, allowing additional time for possible transport of Gd to the fetus, and then sacrificed). Mice were dissected and the placentae and fetuses removed and transferred individually to 2 ml polycarbonate vials for storage at −81° C. These placentae and fetuses were analyzed using ICP-MS for the direct measurement of Gd concentration.
Wet tissue from placentae or pups was chopped with a scalpel into ˜3 mm pieces. A known mass of chopped tissue was then dissolved in 2-4 ml of concentrated nitric acid (14N) and heated at 100° C. till tissue completely dissolved. (Usually, about 30-45 minutes at room temperature and 3 minutes at 100° C. were sufficient). The acid solution was diluted with 10 ml of DI water, causing some precipitation of organic material. The material was centrifuged at 3000 g for 5-10 minutes, and the supernatant used for analysis. Serial dilutions over a 10^6 range were then made, and spiked with an internal standard of Bi 10 parts per billion (ppb) in 2% nitric acid. ICP-MS analysis was conducted on a Varian 810 ICP-MS system, using the manufacturer's recommended protocol for Gd assay. A spike-recovery study on blank tissue yielded linear response with >90% recovery over a range of 0-900 ppb and >96% response over a range of 0-50 ppb.

pregnant Balb/c mice = assay: Blinded reader rating of placental visibility in DCE-MRI; format: in vivo, mouse
Procedure: The trans-placental permeability of liposomal gadolinium (Gd) nanoparticle contrast agents was evaluated in a pregnant mouse model. Pregnant Balb/c mice at 16.5 (±1) days of gestation were imaged using a 3D Spoiled Gradient Echo method at 9.4 T using two contrast agents: a clinically approved Gd chelate, Multihance® (gadobenate dimeglumine), and a novel experimental liposomal Gd agent. A Dynamic Contrast Enhancement (DCE) protocol was used to capture the dynamics of contrast entry and distribution in the placenta, and clearance from circulation. A blinded clinical radiologist evaluated both sets of images. A reference region model was used to measure the placental flow and physiological parameters; volume transfer constant (Ktrans), efflux rate constant (Kep). The Gd content of excised placentae and fetuses was measured, using inductively coupled plasma mass spectrometry (ICP-MS). […] Image interpretation and diagnostic quality was equivalent between the two contrast agents.
as §2
Animals were anesthetized with 4% Isofluorane/air and transferred supine to the animal-imaging cradle. A 28-gauge catheter was placed in the tail vein. Once transferred to the imaging instrument, isofluorane (2%) was administered continuously via a nose cone. A pressure sensitive pillow was placed on the abdomen and taped in place to monitor respiration. The animal chamber of the imaging probe was maintained at around 30-33° C. The magnet room was maintained at 25-27° C. Heart rate was maintained at steady 50-60 beats-per-minute by adjusting the airflow and isofluorane concentration. MR imaging was performed with Multihance® in 14 mice. Liposomal Gd was used in 9 mice. Two mice were injected with saline as a control for comparison. Contrast agents were diluted to 20 mM and a dose of 0.08 mmol/kg (typically around 100 μL) were prepared for this study. The contrast agent was injected manually by the same operator (3 years of experience with small animals) and at the same rate in each mouse.
as §1
For the DCE-MRI study, baseline images without contrast enhancement were acquired, followed by a series of images acquired over time during and after the arrival of the contrast agent in the tissue of interest. A 3D-spoiled gradient recalled echo (SPGRE) pulse sequence with a fixed flip angle of 16 degrees was used over 175 measurements. Other parameters are described in Appendix A. The time for a single measurement was 9.25 seconds. […]

[3] = Placental and fetal contrast agent concentration and uptake from DCE-MRI data; format: in vivo, mouse
Description: The image data was used to calculate absolute Gd concentrations using the methods in Appendix A. Contrast agent concentrations estimated from the MRI data are shown in Table 2-2 using Eqs. A4 and A5.
For the DCE-MRI study, baseline images without contrast enhancement were acquired, followed by a series of images acquired over time during and after the arrival of the contrast agent in the tissue of interest. A 3D-spoiled gradient recalled echo (SPGRE) pulse sequence with a fixed flip angle of 16 degrees was used over 175 measurements. Other parameters are described in Appendix A. The time for a single measurement was 9.25 seconds. Two minutes into the experiment, contrast was injected. Total scan time was 26 minutes and 52 seconds. The acquired signal was used to generate a time-intensity curve and the signal was converted pixel-by-pixel into concentration of the injected agent.
MRI data was transferred to an offline workstation and each placental and fetal compartment was segmented as a separate region of interest (ROI) using AMIRA V5.6 software (FEI Visualization Sciences Group, Hillsboro, Oreg.). The segmented regions were transferred to Matlab (Matlab 7.6.0, MathWorks, Natick, Mass., USA) to create a pixel-by-pixel T1(0) map and T1(t) map as described in Appendix A. Two placental zones were identified visually from the signal enhancement pattern: the labyrinth zone characterized by early flow enhancement and a peripheral region (maternal decidua) characterized by late flow enhancement that began after the central labyrinth enhancement peaked. The two zones together constitute the entire placenta.

[4] = test system: pregnant Sprague Dawley rats; assay: DCE-MRI visualization of the retroplacental space; format: in vivo, rat; conditions: 0.15 mmol Gd/kg, 20 minute post-contrast acquisition
Procedure: In the study with the conventional Gd contrast agent, dynamic contrast enhanced MRI (DCE-MRI) was performed using gadoterate meglumine (Gd-DOTA, Dotarem®) to evaluate visualization of the retroplacental space. DCE-MRI was performed using a T1w 2D gradient echo sequence (GRE) sequence with the following scan parameters: TE=3.5 ms, TR=15 ms, FA=25, slice thickness=0.8 or 1.6 mm, NEX=12; temporal resolution=47 s. Four non-contrast, baseline images were acquired followed by bolus intravenous administration of gadoterate meglumine (0.15 mmol Gd/kg). Post-contrast imaging was continued for upto 20 minutes after administration of gadoterate meglumine. In order to directly compare image quality between the two contrast agents, liposomal-Gd contrast agent (0.15 mmol Gd/kg) was administered a minimum of three hours later, allowing clearance of gadoterate meglumine. Post-liposomal-Gd contrast images were acquired using the same DCE-MRI protocol.
Pre-contrast and post-contrast scans were reviewed by a trained maternal-fetal radiologist (˜10 years of experience). T1 weighted GRE images and T2 weighted FSE images were included in the review. […] The visibility of target features in T1w and T2w images were scored by the radiologist on a 3-point scale: 0=not visible, 1=partly visible and 2=clearly visible. […]

[5] = placentae rated by blinded reader, 5-point scale, 9.4 T

relaxivity (r1) [1] [s/mM] | Gd concentration in placentae and fetuses versus detection limit ([2]; 45 minutes and 90 minutes post injection, detection limit 0.318 nmol/g tissue) | Placental and fetal Gd concentrations, factor of each other ([2]; 90 minutes post-injection) | transplacental permeation ([2]; MRI images and ICP-MS analyses of placental and fetal tissue) | time of image intensity peak after injection (pregnant Balb/c mice; DCE-MRI) [s] | Placental concentration ([3]; gadolinium peak from MRI data, mean, ROI around entire placenta, 0.08 mmol/kg) [µmol/L] | Fetal concentration ([3]; gadolinium peak from MRI data, mean, ROI around fetal sac, 0.08 mmol/kg) [µmol/L] | SMILES | Placental and fetal Gd concentrations relative to each other ([2]; 45 minutes post-injection) | Number observed with Placenta Visibility 1 (pregnant Balb/c mice; [5]) | Number observed with Placenta Visibility 2 (pregnant Balb/c mice; [5]) | Number observed with Placenta Visibility 3 (pregnant Balb/c mice; [5]) | Number observed with Placenta Visibility 4 (pregnant Balb/c mice; [5]) | Number observed with Placenta Visibility 5 (pregnant Balb/c mice; [5]) | uptake of contrast agent in the fetal compartment ([3]; MRI, liposomal Gd even after 72 hr exposure) | visualization of the retroplacental space [4]
3.99 ± 0.52 | above the detection limit | ≤ 2 | avidly permeated the placental barrier | 11 to 15 | 0.60 ± 0.51 | 0.027 ± 0.01 | CNC[C@H](O)[C@@H](O)[C@H](O)[C@H](O)CO.CNC[C@H](O)[C@@H](O)[C@H](O)[C@H](O)CO.O=C([O-])CN(CCN(CC(=O)[O-])CC(=O)O)CCN(CC(=O)O)C(COCc1ccccc1)C(=O)[O-].[Gd+3] (stereo not drawn) [Multihance, gadobenate dimeglumine] | within an order of magnitude of each other | 1 | 6 | 25 | 15 | 7 | uptake of contrast agent in the fetal compartment was observed | –
– | – | – | – | – | – | – | CNC[C@H](O)[C@@H](O)[C@H](O)[C@H](O)CO.O=C([O-])CN1CCN(CC(=O)[O-])CCN(CC(=O)O)CCN(CC(=O)[O-])CC1.[Gd+3] [gadoterate meglumine] | – | – | – | – | – | – | – | no consistent and reproducible visualization of the retroplacental space
